Like-named read-outs stand apart in the source and are kept apart here.
How the values were obtained:
dogs = settings: very high doses (27 and 54×ED95); cited from earlier work
[1] = preclinical studies; cited from earlier work
[2] = Phase I pharmacokinetics after single IV bolus; assay type: in vivo; settings: both sexes, human
Experimental: (§1) (Abstract available in the final supplement of the Journal of Anesthesia and Analgesia, May 2020 (Volume 30, Issue pages 73-74), which is incorporated herein by reference. Healthy volunteers (n=34) aged 18 to 55 of either gender gave informed consent to an 1RB-approved Phase I protocol, NMB was measured by mechanomyography during sevoflurane (0.5 MAC)/N20 (70%) anesthesia. Each volunteer received a single IV bolus of RP1000,

Healthy volunteers = assay: Phase I safety and tolerability in humans; assay type: in vivo, human
Experimental: as §1

[3] = in vivo; cited from earlier work
monkeys = settings: cited from earlier work
Rhesus monkeys = assay: Spontaneous recovery from NMB (twitch 5% to 95% of baseline) after bolus or infusion in Rhesus monkeys under isoflurane; assay type: in vivo, Rhesus monkey; settings: for 5%-95% Interval: mean ± SD
Experimental: Rhesus monkeys under isoflurane anesthesia were administered a bolus dose of either RP2000 or RP1000 at a dose equal to 1× to 10× the ED95 in Rhesus monkeys of the administered compound (ED95,Rp1000=0.040 mg/kg; ED95,RP2000=0.053 mg/kg). Twitch (0.15 Hz) and TOF (2 Hz×2 seconds) were recorded throughout the 6 -10 hours experiments. Time to spontaneous recovery after bolus administration, characterized by recovery of twitch from 5% to 95% of baseline was measured.
Separately, continuous infusions of 20-180 minutes duration were given (to separate subjects), and after discontinuation of infusion, time to spontaneous recovery of NMB, characterized by recovery of twitch from 5% to 95% of baseline was measured.

COc1ccc(C[C@@H]2c3cc(OC)c(OC)cc3CC[N@@+]2(C)CCCOC(=O)/C=C/C(=O)OCCC[N@+]2(C)CCc3cc(OC)c(OC)cc3[C@H]2Cc2ccc(OC)c(OC)c2)cc1OC.[Cl-].[Cl-] [RP1000]
decrease in mean arterial pressure (dogs): 20% | increase in heart rate (dogs): 20% | time to 100% NMB after administration [1]: ≤ 90 s | half-life ([2]; in vivo, intravenous, all dosage groups, read-out: half-life of elimination): 25 to 26 min | AUC(0-t) ([2]; plasma, iv, 0.04 mg/kg, single IV bolus 0.04 mg/kg (n = 6), read-out: AUClast, Geometric Mean (converted)): 132 ng·h/mL | AUC(0-t) ([2]; plasma, iv, 0.04 mg/kg, single IV bolus 0.04 mg/kg (n = 6), read-out: AUClast, Mean (converted)): 6.35 ng·h/mL | clearance ([2]; plasma, iv, 0.04 mg/kg, single IV bolus 0.04 mg/kg (n = 6), read-out: CL (clearance), Geometric Mean): 387 mL/min | clearance ([2]; plasma, iv, 0.04 mg/kg, single IV bolus 0.04 mg/kg (n = 6), read-out: CL (clearance), Mean (SD)): 400 mL/min | Cmax ([2]; plasma, iv, 0.04 mg/kg, single IV bolus 0.04 mg/kg (n = 6), read-out: Cmax, Geometric Mean): 2360 ng/mL | Cmax ([2]; plasma, iv, 0.04 mg/kg, single IV bolus 0.04 mg/kg (n = 6), read-out: Cmax, Mean): 2540 ng/mL | Vd ([2]; plasma, iv, 0.04 mg/kg, single IV bolus 0.04 mg/kg (n = 6), read-out: Vss (volume at steady state), Geometric Mean): 9.33 L | Vd ([2]; plasma, iv, 0.04 mg/kg, single IV bolus 0.04 mg/kg (n = 6), read-out: Vss (volume at steady state), Mean): 9.54 L | half-life ([2]; plasma, iv, 0.04 mg/kg, single IV bolus 0.04 mg/kg (n = 6), read-out: t1/2 (terminal elimination half-life), Geometric Mean): 27.4 min | half-life ([2]; plasma, iv, 0.04 mg/kg, single IV bolus 0.04 mg/kg (n = 6), read-out: t1/2 (terminal elimination half-life), Mean (SD)): 29 min | AUC(0-t) ([2]; plasma, iv, 0.06 mg/kg, single IV bolus 0.06 mg/kg (n = 6), read-out: AUClast, Geometric Mean (converted)): 160 ng·h/mL | AUC(0-t) ([2]; plasma, iv, 0.06 mg/kg, single IV bolus 0.06 mg/kg (n = 6), read-out: AUClast, Mean (converted)): 153 ng·h/mL | clearance ([2]; plasma, iv, 0.06 mg/kg, single IV bolus 0.06 mg/kg (n = 6), read-out: CL (clearance), Geometric Mean): 399 mL/min | clearance ([2]; plasma, iv, 0.06 mg/kg, single IV bolus 0.06 mg/kg (n = 6), read-out: CL (clearance), Mean (SD)): 409 mL/min | Cmax ([2]; plasma, iv, 0.06 mg/kg, single IV bolus 0.06 mg/kg (n = 6), read-out: Cmax, Geometric Mean): 2600 ng/mL | Cmax ([2]; plasma, iv, 0.06 mg/kg, single IV bolus 0.06 mg/kg (n = 6), read-out: Cmax, Mean): 3070 ng/mL | Vd ([2]; plasma, iv, 0.06 mg/kg, single IV bolus 0.06 mg/kg (n = 6), read-out: Vss (volume at steady state), Geometric Mean): 8.8 L | Vd ([2]; plasma, iv, 0.06 mg/kg, single IV bolus 0.06 mg/kg (n = 6), read-out: Vss (volume at steady state), Mean): 8.92 L | half-life ([2]; plasma, iv, 0.06 mg/kg, single IV bolus 0.06 mg/kg (n = 6), read-out: t1/2 (terminal elimination half-life), Geometric Mean): 26.3 min | half-life ([2]; plasma, iv, 0.06 mg/kg, single IV bolus 0.06 mg/kg (n = 6), read-out: t1/2 (terminal elimination half-life), Mean (SD)): 26 min | AUC(0-t) ([2]; plasma, iv, 0.08 mg/kg, single IV bolus 0.08 mg/kg (n = 6), read-out: AUClast, Geometric Mean (converted)): 248 ng·h/mL | AUC(0-t) ([2]; plasma, iv, 0.08 mg/kg, single IV bolus 0.08 mg/kg (n = 6), read-out: AUClast, Mean (converted)): 235 ng·h/mL | clearance ([2]; plasma, iv, 0.08 mg/kg, single IV bolus 0.08 mg/kg (n = 6), read-out: CL (clearance), Geometric Mean): 387 mL/min | clearance ([2]; plasma, iv, 0.08 mg/kg, single IV bolus 0.08 mg/kg (n = 6), read-out: CL (clearance), Mean (SD)): 390 mL/min | Cmax ([2]; plasma, iv, 0.08 mg/kg, single IV bolus 0.08 mg/kg (n = 6), read-out: Cmax, Geometric Mean): 3610 ng/mL | Cmax ([2]; plasma, iv, 0.08 mg/kg, single IV bolus 0.08 mg/kg (n = 6), read-out: Cmax, Mean): 4040 ng/mL | Vd ([2]; plasma, iv, 0.08 mg/kg, single IV bolus 0.08 mg/kg (n = 6), read-out: Vss (volume at steady state), Geometric Mean): 9.58 L | Vd ([2]; plasma, iv, 0.08 mg/kg, single IV bolus 0.08 mg/kg (n = 6), read-out: Vss (volume at steady state), Mean): 9.65 L | half-life ([2]; plasma, iv, 0.08 mg/kg, single IV bolus 0.08 mg/kg (n = 6), read-out: t1/2 (terminal elimination half-life), Geometric Mean): 27 min | half-life ([2]; plasma, iv, 0.08 mg/kg, single IV bolus 0.08 mg/kg (n = 6), read-out: t1/2 (terminal elimination half-life), Mean (SD)): 27 min | AUC(0-t) ([2]; plasma, iv, 0.1 mg/kg, single IV bolus 0.10 mg/kg (n = 6), read-out: AUClast, Geometric Mean (converted)): 303 ng·h/mL | AUC(0-t) ([2]; plasma, iv, 0.1 mg/kg, single IV bolus 0.10 mg/kg (n = 6), read-out: AUClast, Mean (converted)): 291 ng·h/mL | clearance ([2]; plasma, iv, 0.1 mg/kg, single IV bolus 0.10 mg/kg (n = 6), read-out: CL (clearance), Geometric Mean): 438 mL/min | clearance ([2]; plasma, iv, 0.1 mg/kg, single IV bolus 0.10 mg/kg (n = 6), read-out: CL (clearance), Mean (SD)): 443 mL/min | Cmax ([2]; plasma, iv, 0.1 mg/kg, single IV bolus 0.10 mg/kg (n = 6), read-out: Cmax, Geometric Mean): 5020 ng/mL | Cmax ([2]; plasma, iv, 0.1 mg/kg, single IV bolus 0.10 mg/kg (n = 6), read-out: Cmax, Mean): 5270 ng/mL | Vd ([2]; plasma, iv, 0.1 mg/kg, single IV bolus 0.10 mg/kg (n = 6), read-out: Vss (volume at steady state), Geometric Mean): 9.02 L | Vd ([2]; plasma, iv, 0.1 mg/kg, single IV bolus 0.10 mg/kg (n = 6), read-out: Vss (volume at steady state), Mean): 9.12 L | half-life ([2]; plasma, iv, 0.1 mg/kg, single IV bolus 0.10 mg/kg (n = 6), read-out: t1/2 (terminal elimination half-life), Geometric Mean): 23.9 min | half-life ([2]; plasma, iv, 0.1 mg/kg, single IV bolus 0.10 mg/kg (n = 6), read-out: t1/2 (terminal elimination half-life), Mean (SD)): 24 min | AUC(0-t) ([2]; plasma, iv, 0.14 mg/kg, single IV bolus 0.14 mg/kg (n = 4), read-out: AUClast, Geometric Mean (converted)): 507 ng·h/mL | AUC(0-t) ([2]; plasma, iv, 0.14 mg/kg, single IV bolus 0.14 mg/kg (n = 4), read-out: AUClast, Mean (converted)): 481 ng·h/mL | clearance ([2]; plasma, iv, 0.14 mg/kg, single IV bolus 0.14 mg/kg (n = 4), read-out: CL (clearance), Geometric Mean): 366 mL/min | clearance ([2]; plasma, iv, 0.14 mg/kg, single IV bolus 0.14 mg/kg (n = 4), read-out: CL (clearance), Mean (SD)): 368 mL/min | Cmax ([2]; plasma, iv, 0.14 mg/kg, single IV bolus 0.14 mg/kg (n = 4), read-out: Cmax, Geometric Mean): 9120 ng/mL | Cmax ([2]; plasma, iv, 0.14 mg/kg, single IV bolus 0.14 mg/kg (n = 4), read-out: Cmax, Mean): 10300 ng/mL | Vd ([2]; plasma, iv, 0.14 mg/kg, single IV bolus 0.14 mg/kg (n = 4), read-out: Vss (volume at steady state), Geometric Mean): 7.84 L | Vd ([2]; plasma, iv, 0.14 mg/kg, single IV bolus 0.14 mg/kg (n = 4), read-out: Vss (volume at steady state), Mean): 7.96 L | half-life ([2]; plasma, iv, 0.14 mg/kg, single IV bolus 0.14 mg/kg (n = 4), read-out: t1/2 (terminal elimination half-life), Geometric Mean): 24.8 min | half-life ([2]; plasma, iv, 0.14 mg/kg, single IV bolus 0.14 mg/kg (n = 4), read-out: t1/2 (terminal elimination half-life), Mean (SD)): 25 min | tolerability (Healthy volunteers; healthy volunteers, 0.02 mg/kg to 0.14 mg/kg): generally well-tolerated | cardiopulmonary side effects (Healthy volunteers; humans, doses up to 0.14 mg/kg): did not result in significant cardiopulmonary side effects | signs of histamine release (Healthy volunteers; humans, doses up to 0.14 mg/kg): nor any signs of histamine release | potential for bronchoconstrictive activity or histamine release [3]: low potential | effects on autonomic or circulatory systems (monkeys): no observed ill-elects on autonomic or circulatory systems | ED95 in Rhesus monkeys (Rhesus monkeys; Rhesus monkeys, isoflurane anesthesia): 0.040 mg/kg | 5%-95% Interval (Rhesus monkeys; after continuous infusion of 20-180 minutes): 13.1 ± 3.7 min | 5%-95% Interval (Rhesus monkeys; bolus dose 0.05 mg/kg): 15.3 ± 7.5 min | 5%-95% Interval (Rhesus monkeys; bolus dose 0.10 mg/kg): 14.3 ± 6.5 min | 5%-95% Interval (Rhesus monkeys; bolus dose 0.20 mg/kg): 13.3 ± 4.4 min | 5%-95% Interval (Rhesus monkeys; bolus dose 0.40 mg/kg): 15.5 ± 5.1 min

Reference: US20230381192A1, “METHODS FOR CONTROLLING AND PREDICTING RECOVERY AFTER NMBA ADMINISTRATION” (Cornell University, priority 2020, published 2023)
